Assay results published in patent publication US7674789B2, “Compounds” (Glaxo Group Limited, priority 2005, dated 2010).

Test system: influx of neutrophils to the lung in LPS-challenged rats
Test: Rat LPS neutrophilia model
Type: in vivo
Conditions: intratracheal compound 15 min-24 hours before LPS aerosol (100 ug/ml, 15 min), lavage 4 hours later, in at least one of the range of conditions tested
Method: Rat LPS Neutrophilia Model
The effect of compounds on the influx of neutrophils to the lung in LPS-challenged rats is evaluated as follows. The test compound is suspended in one of the following solutions: 0.5% tween 80/PBS, 0.5% tween 80/saline, 10% EtOH/saline (with pH adjusted to 2.0, or 8.0 with HCl, or unadjusted), Saline @ pH 2.0, 6.5 or 8.0, 0.5% Tragacanth, 1% DMSO/20% Encapsin/Saline, or acidified 5% Tragacanth. The suspension process may be aided by the use of a glass homogenizer. For intratracheal administration, the animals are anesthetized with inhaled isoflurane and placed in a supine position, the trachea is intubated with a steel gavage needle (1.5 inch, 22 gauge, small ball) or a Penn-Century Microsprayer Aerosolizer (model IA-1B) and 200 ul of dosing solution is delivered. The animals are visually monitored during the recovery process, which typically occurs within two minutes.
Rats treated with compound or vehicle (15 min-24 hours pretreatment) are exposed to an LPS aerosol (100 ug/ml) for 15 min. Four hours later the rats are euthanized with pentobarbital (100 mg/kg, i.p.) and the airways are lavaged with 5 washes of 5 ml of phosphate buffered saline. The harvested cells are stained (Diffquick) and counted to determine total and differential cell data. In a typical study, macrophages represent 40-70% of the total cells, and polymorphonuclear cells 30-60% of the total cells. Inhibition of neutrophil levels relative to no compound controls is calculated based on the differential counts.
The assay has varying conditions, such as concentration, pretreat time, form of the compound (crystalline, amorphous, salts, micronised), and a wet or dry application of the compound. The data is obtained as % inhibition using a particular concentration and pretreat time.

SMILES	inhibition of neutrophilia (neutrophil influx to the lung)
CSc1nc(-c2cc(NC(=O)c3ccsc3)ccc2C)c2c(n1)N(c1c(F)cccc1F)C(=O)NC2 [7(c), N-{3-[8-(2,6-Difluorophenyl)-2-(methylthio)-7-oxo-5,6,7,8-tetrahydropyrimido[4,5-d]pyrimidin-4-yl]-4-methylphenyl}-3-thiophenecarboxamide]	inactive
Cc1ccc(C(=O)Nc2ccc(F)cc2)cc1-c1nc(NCCN(C)C)nc2c1CNC(=O)N2c1c(F)cccc1F [8(c), 3-(8-(2,6-difluorophenyl)-2-{[2-(dimethylamino)ethyl]amino}-7-oxo-5,6,7,8-tetrahydropyrimido[4,5-d]pyrimidin-4-yl)-N-(4-fluorophenyl)-4-methylbenzamide]	statistically significant inhibition of neutrophilia
CSc1nc(-c2cc(NC(=O)c3ccc(C)c(F)c3)ccc2C)c2c(n1)N(c1c(F)cccc1F)C(=O)NC2 [23(c), N-{3-[8-(2,6-difluorophenyl)-2-(methylthio)-7-oxo-5,6,7,8-tetrahydropyrimido[4,5-d]pyrimidin-4-yl]-4-methylphenyl}-3-fluoro-4-methylbenzamide]	inactive
Cc1ccc(C(=O)Nc2ccc(C)c(-c3nc(NC4CC(C)(C)NC(C)(C)C4)nc4c3CNC(=O)N4c3c(F)cccc3F)c2)cc1F [23(e), N-(3-{8-(2,6-difluorophenyl)-7-oxo-2-[(2,2,6,6-tetramethyl-4-piperidinyl)amino]-5,6,7,8-tetrahydropyrimido[4,5-d]pyrimidin-4-yl}-4-methylphenyl)-3-fluoro-4-methylbenzamide]	statistically nonsignificant inhibition of neutrophilia
CCCNC(=O)c1ccc(C)c(-c2nc(NCCCN(CC)CC)nc3c2CNC(=O)N3c2c(F)cccc2F)c1 [29(c), 3-[2-{[3-(diethylamino)propyl]amino}-8-(2,6-difluorophenyl)-7-oxo-5,6,7,8-tetrahydropyrimido[4,5-d]pyrimidin-4-yl]-4-methyl-N-propylbenzamide]	statistically significant inhibition of neutrophilia
Cc1ccc(C(=O)NC(C)C)cc1-c1nc(N(C)CCCN(C)C)nc2c1CNC(=O)N2c1c(F)cccc1F [34(d), 3-{8-(2,6-difluorophenyl)-2-[[3-(dimethylamino)propyl](methyl)amino]-7-oxo-5,6,7,8-tetrahydropyrimido[4,5-d]pyrimidin-4-yl}-4-methyl-N-(1-methylethyl)benzamide]	statistically nonsignificant inhibition of neutrophilia
Cc1ccc(C(=O)Nc2ccc(F)cc2)cc1-c1nc(N2CCC(N3CCCC3)CC2)nc2c1CNC(=O)N2c1c(F)cccc1F [86(c), 3-{8-(2,6-difluorophenyl)-7-oxo-2-[4-(1-pyrrolidinyl)-1-piperidinyl]-5,6,7,8-tetrahydropyrimido[4,5-d]pyrimidin-4-yl}-N-(4-fluorophenyl)-4-methylbenzamide]	statistically nonsignificant inhibition of neutrophilia
Cc1ccc(C(=O)Nc2ccc(F)cc2)cc1-c1nc(N2CCC(N3CCCCC3)CC2)nc2c1CNC(=O)N2c1c(F)cccc1F [87(b), 3-[2-(1,4′-bipiperidin-1′-yl)-8-(2,6-difluorophenyl)-7-oxo-5,6,7,8-tetrahydropyrimido[4,5-d]pyrimidin-4-yl]-N-(4-fluorophenyl)-4-methylbenzamide]	statistically nonsignificant inhibition of neutrophilia
Cc1ccc(C(=O)Nc2nccs2)cc1-c1nc(NCCN(C)C)nc2c1CNC(=O)N2c1c(F)cccc1F [118(c), 3-(8-(2,6-difluorophenyl)-2-{[2-(dimethylamino)ethyl]amino}-7-oxo-5,6,7,8-tetrahydropyrimido[4,5-d]pyrimidin-4-yl)-4-methyl-N-1,3-thiazol-2-ylbenzamide]	statistically significant inhibition of neutrophilia
Cc1ccc(C(=O)Nc2ccc(F)cc2)cc1-c1nc(N(C)CCCN(C)C)nc2c1CNC(=O)N2c1c(F)cccc1F [Example 9, 3-{8-(2,6-difluorophenyl)-2-[[3-(dimethylamino)-propyl](methyl)amino]-7-oxo-5,6,7,8-tetrahydropyrimido[4,5-d]pyrimidin-4-yl}-N-(4-fluorophenyl)-4-methylbenzamide]	statistically nonsignificant inhibition of neutrophilia
Cc1ccc(NC(=O)c2ccsc2)cc1-c1nc(N2CCC(N)CC2)nc2c1CNC(=O)N2c1c(F)cccc1F [Example 11, N-{3-[2-(4-amino-1-piperidinyl)-8-(2,6-difluorophenyl)-7-oxo-5,6,7,8-tetrahydropyrimido[4,5-d]pyrimidin-4-yl]-4-methylphenyl}-3-thiophenecarboxamide]	statistically significant inhibition of neutrophilia
Cc1ccc(C(=O)NCc2ccccc2)cc1-c1nc(N(C)CCCN(C)C)nc2c1CNC(=O)N2c1c(F)cccc1F [Example 17, 3-{8-(2,6-Difluorophenyl)-2-[[3-(dimethylamino)propyl](methyl)amino]-7-oxo-5,6,7,8-tetrahydropyrimido[4,5-d]pyrimidin-4-yl}-4-methyl-N-(phenylmethyl)benzamide]	statistically nonsignificant inhibition of neutrophilia
Cc1ccc(C(=O)Nc2ccc(C)c(-c3nc(N4CCC(N)CC4)nc4c3CNC(=O)N4c3c(F)cccc3F)c2)cc1F [Example 24, N-{3-[2-(4-amino-1-piperidinyl)-8-(2,6-difluorophenyl)-7-oxo-5,6,7,8-tetrahydropyrimido[4,5-d]pyrimidin-4-yl]-4-methylphenyl}-3-fluoro-4-methylbenzamide]	statistically nonsignificant inhibition of neutrophilia
Cc1ccc(C(=O)Nc2ccc(C)c(-c3nc(OC(C)C)nc4c3CNC(=O)N4c3c(F)cccc3F)c2)cc1F [Example 26, N-(3-{8-(2,6-difluorophenyl)-2-[(1-methylethyl)oxy]-7-oxo-5,6,7,8-tetrahydropyrimido[4,5-d]pyrimidin-4-yl}-4-methylphenyl)-3-fluoro-4-methylbenzamide]	inactive
Cc1ccc(C(=O)Nc2ccc(C)c(-c3nc(N(C)C)nc4c3CNC(=O)N4c3c(F)cccc3F)c2)cc1F [Example 28, N-{3-[8-(2,6-difluorophenyl)-2-(dimethylamino)-7-oxo-5,6,7,8-tetrahydropyrimido[4,5-d]pyrimidin-4-yl]-4-methylphenyl}-3-fluoro-4-methylbenzamide]	statistically nonsignificant inhibition of neutrophilia
Cc1ccc(C(=O)Nc2ccc(F)cc2)cc1-c1nc(N(C)CCN(C)C)nc2c1CNC(=O)N2c1c(F)cccc1F [Example 32, 3-{8-(2,6-difluorophenyl)-2-[[2-(dimethylamino)ethyl](methyl)amino]-7-oxo-5,6,7,8-tetrahydropyrimido[4,5-d]pyrimidin-4-yl}-N-(4-fluorophenyl)-4-methylbenzamide]	statistically nonsignificant inhibition of neutrophilia
